One experiment has as its target T1, human A2B receptors (Homo sapiens, UniProt P29275).
T1 construct: expressed in transfected cells; host or cells: HEK293
T1 sequence (P29275 1-332): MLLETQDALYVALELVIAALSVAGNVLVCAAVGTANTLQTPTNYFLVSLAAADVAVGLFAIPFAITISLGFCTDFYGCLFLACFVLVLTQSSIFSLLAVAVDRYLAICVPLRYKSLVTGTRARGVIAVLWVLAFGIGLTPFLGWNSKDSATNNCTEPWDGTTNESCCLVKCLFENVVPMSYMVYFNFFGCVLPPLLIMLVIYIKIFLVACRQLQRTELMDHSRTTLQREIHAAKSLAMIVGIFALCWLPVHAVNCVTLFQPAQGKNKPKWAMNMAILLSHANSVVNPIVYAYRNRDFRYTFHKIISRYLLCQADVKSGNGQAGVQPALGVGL
The experiment in a line: Functional human A2B receptor activity, recombinant HEK293 cells, cAMP (HTRF). The experiment is classed as cell-based. Summed up: (§1)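 15 min incubation → HTRF cAMP reagents added → cellular cAMP read on plate reader. cAMP serves as adenosine receptor second messenger.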
On the technique in general: TR-FRET usually uses a lanthanide donor and a delayed reading to cut background.

For another experiment, the target named is T2, human A2A receptors (Homo sapiens, UniProt P29274).
T2 construct: expressed in transfected cells; host or cells: HEK293
Kind of experiment: Functional human A2A receptor activity, recombinant HEK293 cells, cAMP (HTRF). The experiment is classed as cell-based. Summed up: as §1

Like-named read-outs stand apart in the source and are kept apart here.

We go through 24 compounds from patent US20210380606A1, “5-AZAINDAZOLE DERIVATIVES AS ADENOSINE RECEPTOR ANTAGONISTS” (Merck Patent GmbH, priority 2018, published 2021).

T2 sequence (P29274 whole entry): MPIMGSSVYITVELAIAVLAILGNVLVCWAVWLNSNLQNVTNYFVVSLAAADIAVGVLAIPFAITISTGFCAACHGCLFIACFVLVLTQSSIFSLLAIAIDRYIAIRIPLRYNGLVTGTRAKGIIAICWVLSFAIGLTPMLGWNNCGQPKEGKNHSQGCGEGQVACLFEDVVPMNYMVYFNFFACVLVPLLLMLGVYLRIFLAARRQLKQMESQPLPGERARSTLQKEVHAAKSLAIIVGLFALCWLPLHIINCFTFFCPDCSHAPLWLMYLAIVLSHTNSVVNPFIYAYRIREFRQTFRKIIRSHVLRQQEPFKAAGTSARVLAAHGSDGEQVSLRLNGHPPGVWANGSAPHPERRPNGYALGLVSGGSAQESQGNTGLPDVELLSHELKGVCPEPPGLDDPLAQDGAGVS

For the compound `O=C(c1cc2c(cn1)c(-c1cnn3ccccc13)nn2CC(F)(F)F)N1CCC(O)CC1` [Compound 114, (4-hydroxy-1-piperidyl)-[3-pyrazolo[1,5-a]pyridin-3-yl-1-(2,2,2-trifluoroethyl)pyrazolo[4,3-c]pyridin-6-yl]methanone], the IC50 on human A2B receptors (read-out: A2B (Category)) and at human A2A receptors (read-out: A2A (Category)) was less than 100 nM each time.

Consider `O=C(c1cc2c(cn1)c(-c1coc3ccccc13)nn2CC(F)(F)F)N1CCC(F)(F)CC1` [Compound 225, [3-(benzofuran-3-yl)-1-(2,2,2-trifluoroethyl)pyrazolo[4,3-c]pyridin-6-yl]-(4,4-difluoro-1-piperidyl)methanone], for which the IC50 on human A2B receptors (read-out: A2B (Category)) is less than 1000 nM; at human A2A receptors (read-out: A2A (Category)), less than 100 nM.

On to `CCN(C(=O)c1cc2c(cn1)c(-c1coc3ccccc13)nn2CC(F)(F)F)C(C)C` [Compound 234, 3-(benzofuran-3-yl)-N-ethyl-N-isopropyl-1-(2,2,2-trifluoroethyl)-pyrazolo[4,3-c]pyridine-6-carboxamide], for which the results for the IC50 on human A2B receptors (read-out: A2B (Category)) and on human A2A receptors (read-out: A2A (Category)) were less than 1000 nM and less than 100 nM, respectively.

`O=C(c1cc2c(cn1)c(-c1cnc3c(F)cc(F)cn13)nn2CC(F)(F)F)N1CCCC(O)CC1` (stereo not drawn) [Compound 177, [3-(6,8-Difluoro-imidazo[1,2-a]pyridin-3-yl)-1-(2,2,2-trifluoro-ethyl)-1H-pyrazolo[4,3-c]pyridin-6-yl]-(4-hydroxy-azepan-1-yl)-methanone]: the IC50 at human A2B receptors (read-out: A2B (Category)) and at human A2A receptors (read-out: A2A (Category)) was less than 100 nM throughout.

Consider `O=C(c1cc2c(cn1)c(-c1cnc3cc(F)c(Cl)cn13)nn2CC(F)(F)F)N1CCCCCC1` [Compound 74, Azepan-1-yl-[3-(6-chloro-7-fluoro-imidazo[1,2-a]pyridin-3-yl)-1-(2,2,2-trifluoro-ethyl)-1H-pyrazolo[4,3-c]pyridin-6-yl]-methanone], for which the values for the IC50 at human A2B receptors (read-out: A2B (Category)) and at human A2A receptors (read-out: A2A (Category)) were less than 1000 nM and less than 100 nM, respectively.

`CS(=O)(=O)Cn1nc(-c2coc3ccccc23)c2cnc(C(=O)N3CCCC(F)(F)C3)cc21` [Compound 39, (3-Benzofuran-3-yl-1-methanesulfonylmethyl-1H-pyrazolo[4,3-c]pyridin-6-yl)-(3,3-difluoro-piperidin-1-yl)-methanone]: the IC50 on human A2B receptors (read-out: A2B (Category)) and on human A2A receptors (read-out: A2A (Category)) was less than 100 nM throughout.

With `[2H]C1([2H])COCCN(C(=O)c2cc3c(cn2)c(-c2cnn4ccccc24)nn3CC(F)(F)F)C1` [Compound 121, (6,6-dideuterio-1,4-oxazepan-4-yl)-[3-pyrazolo[1,5-a]pyridin-3-yl-1-(2,2,2-trifluoroethyl)pyrazolo[4,3-c]pyridin-6-yl]methanone], the IC50 at human A2B receptors (read-out: A2B (Category)) and on human A2A receptors (read-out: A2A (Category)) was less than 100 nM throughout.

As to `O=C(c1cc2c(cn1)c(-c1cnc3c(F)cc(F)cn13)nn2CC(F)(F)F)N1CC2CC1CO2` (stereo not drawn) [Compound 135, [3-(6,8-Difluoro-imidazo[1,2-a]pyridin-3-yl)-1-(2,2,2-trifluoro-ethyl)-1H-pyrazolo[4,3-c]pyridin-6-yl]-(2-oxa-5-aza-bicyclo[2.2.1]hept-5-yl)-methanone], the figures for the IC50 at human A2B receptors (read-out: A2B (Category)) and at human A2A receptors (read-out: A2A (Category)) were less than 1000 nM and less than 100 nM, respectively.

`CC(C)N(C(=O)c1cc2c(cn1)c(-c1coc3ccccc13)nn2CC(F)(F)F)C(C)C` [Compound 233, 3-(benzofuran-3-yl)-N,N-diisopropyl-1-(2,2,2-trifluoroethyl)pyrazolo[4,3-c]pyridine-6-carboxamide]: the IC50 on human A2B receptors (read-out: A2B (Category)) is less than 1000 nM; at human A2A receptors (read-out: A2A (Category)), less than 100 nM.

On to `O=C(c1cc2c(cn1)c(-c1cnc3ccccn13)nn2CC(F)(F)F)N1[C@@H]2CC[C@H]1C[C@@H](O)C2` [Compound 87, [3-(imidazo[1,2-a]pyridin-3-yl)-1-(2,2,2-trifluoroethyl)pyrazolo[4,3-c]pyridin-6-yl]-(3-endo-hydroxy-8-azabicyclo[3.2.1]octan-8-yl)methanone], for which the IC50 on human A2B receptors (read-out: A2B (Category)) was less than 1000 nM; on human A2A receptors (read-out: A2A (Category)), less than 100 nM.

Consider `CS(=O)(=O)Cn1nc(-c2coc3ccccc23)c2cnc(C(=O)N3CC4CCC(C4)C3)cc21` [Compound 19, (3-Aza-bicyclo[3.2.1]oct-3-yl)-(3-benzofuran-3-yl-1-methanesulfonylmethyl-1H-pyrazolo[4,3-c]pyridin-6-yl)-methanone], for which the IC50 on human A2B receptors (read-out: A2B (Category)) and on human A2A receptors (read-out: A2A (Category)) was less than 100 nM each time.

As to `CS(=O)(=O)Cn1nc(-c2cnc3c(F)cc(F)cn23)c2cnc(C(=O)N3CC4CCC(C4)C3)cc21` [Compound 23, (3-Aza-bicyclo[3.2.1]oct-3-yl)-[3-(6,8-difluoro-imidazo[1,2-a]pyridin-3-yl)-1-methanesulfonylmethyl-1H-pyrazolo[4,3-c]pyridin-6-yl]-methanone], the IC50 at human A2B receptors (read-out: A2B (Category)) and at human A2A receptors (read-out: A2A (Category)) was less than 100 nM throughout.

Take `CS(=O)(=O)Cn1nc(-c2coc3ccccc23)c2cnc(C(=O)N3CCCOCC3)cc21` [Compound 16, (3-Benzofuran-3-yl-1-methanesulfonylmethyl-1H-pyrazolo[4,3-c]pyridine-6-yl)-1,4-oxazepan-4-yl-methanone]: the IC50 on human A2B receptors (read-out: A2B (Category)) and on human A2A receptors (read-out: A2A (Category)) was less than 100 nM in each case.

For `O=C(c1cc2c(cn1)c(-c1cnc3ccc(F)cn13)nn2CC(F)(F)F)N1CCC(O)CC1` [Compound 131, [3-(6-Fluoro-imidazo[1,2-a]pyridin-3-yl)-1-(2,2,2-trifluoro-ethyl)-1H-pyrazolo[4,3-c]pyridin-6-yl]-(4-hydroxy-piperidin-1-yl)-methanone], the IC50 was less than 1000 nM on human A2B receptors (read-out: A2B (Category)) and less than 100 nM on human A2A receptors (read-out: A2A (Category)).

Take `O=C(c1ccc2c(-c3cnc4ccc(Cl)cn34)nn(CC(F)(F)F)c2c1)N1CCCCCC1` [analogue to No. 48, reference compound]: the IC50 on human A2B receptors (read-out: Functional A2B receptor activity HEK293, cAMP IC50) was greater than 1000 nM; on human A2A receptors (read-out: Functional A2A receptor activity, HEK293, cAMP, IC50) it was less than 100 nM.

Turning to `O=C(c1cc2c(cn1)c(-c1cnn3ccccc13)nn2CC(F)(F)F)N1CCCOCC1` [Compound 95, 1,4-Oxazepan-4-yl-[3-pyrazolo[1,5-a]pyridine-3-yl-1-(2,2,2-trifluoro-ethyl)-1H-pyrazolo[4,3-c]pyridine-6-yl]-methanone], the IC50 on human A2B receptors (read-out: A2B (Category)) is less than 1000 nM; at human A2A receptors (read-out: A2A (Category)), less than 100 nM.

In the case of `CSCn1nc(-c2cnc3c(F)cc(F)cn23)c2cnc(C(=O)N3CC4CCC(C4)C3)cc21` [Compound 14, (3-Aza-bicyclo[3.2.1]oct-3-yl)-[3-(6,8-difluoro-imidazo[1,2-a]pyridin-3-yl)-1-methylsulfanylmethyl-1H-pyrazolo[4,3-c]pyridin-6-yl]-methanone], the IC50 on human A2B receptors (read-out: A2B (Category)) and on human A2A receptors (read-out: A2A (Category)) was less than 100 nM in each case.

In the case of `CC(C)(C)OC(=O)NC1COCCN(C(=O)c2cc3c(cn2)c(-c2cnc4c(F)cc(F)cn24)nn3CC(F)(F)F)C1` (stereo not drawn) [Compound 204, {4-[3-(6,8-Difluoro-imidazo[1,2-a]pyridin-3-yl)-1-(2,2,2-trifluoro-ethyl)-1H-pyrazolo[4,3-c]pyridine-6-carbonyl]-1,4-oxazepan-6-yl}-carbamic Acid Tert-Butyl Ester], the figures for the IC50 on human A2B receptors (read-out: A2B (Category)) and at human A2A receptors (read-out: A2A (Category)) were less than 1000 nM and less than 100 nM, respectively.

As for `O=C(c1cc2c(cn1)c(-c1cnn3ccccc13)nn2CC(F)(F)F)N1CCCCCC1` [Compound 89, Azepan-1-yl-[3-pyrazolo[1,5-a]pyridin-3-yl-1-(2,2,2-trifluoro-ethyl)-1H-pyrazolo[4,3-c]pyridin-6-yl]-methanone hydrochoride], the IC50 on human A2B receptors (read-out: A2B (Category)) and at human A2A receptors (read-out: A2A (Category)) was less than 100 nM in each case.

As to `O=C(c1cc2c(cn1)c(-c1cnc3ccc(Cl)cn13)nn2CC(F)(F)F)N1CCCCCC1` [Compound 48, Azepan-1-yl-[3-(6-chloro-imidazo[1,2-a]pyridin-3-yl)-1-(2,2,2-trifluoro-ethyl)-1H-pyrazolo[4,3-c]pyridin-6-yl]-methanone], the IC50 is less than 1000 nM at human A2B receptors (read-out: A2B (Category)) and less than 100 nM at human A2A receptors (read-out: A2A (Category)).

For the compound `O=C(c1cc2c(cn1)c(-c1cnc3c(F)cc(F)cn13)nn2CC(F)(F)F)N1CCC(O)(c2cccnc2)CC1` [Compound 147, [3-(6,8-Difluoro-imidazo[1,2-a]pyridin-3-yl)-1-(2,2,2-trifluoro-ethyl)-1H-pyrazolo[4,3-c]pyridin-6-yl]-(4′-hydroxy-3′,4′,5′,6′-tetrahydro-2′H-[3,4′]bipyridinyl-1′-yl)-methanone], the results for the IC50 on human A2B receptors (read-out: A2B (Category)) and on human A2A receptors (read-out: A2A (Category)) were less than 1000 nM and less than 100 nM, respectively.

On to `O=C(c1cc2c(cn1)c(-c1cnc3c(F)cc(F)cn13)nn2CC(F)(F)F)N1CCC(C(F)F)CC1` [Compound 173, [3-(6,8-Difluoro-imidazo[1,2-a]pyridin-3-yl)-1-(2,2,2-trifluoro-ethyl)-1H-pyrazolo[4,3-c]pyridin-6-yl]-(4-difluoromethyl-piperidin-1-yl)-methanone], for which the IC50 was less than 1000 nM at human A2B receptors (read-out: A2B (Category)) and less than 100 nM on human A2A receptors (read-out: A2A (Category)).

For the compound `O=C(c1cc2c(cn1)c(-c1cnc3c(F)cccn13)nn2CC(F)(F)F)N1CCCCCC1` [Compound 62, Azepan-1-yl-[3-(8-fluoro-imidazo[1,2-a]pyridin-3-yl)-1-(2,2,2-trifluoro-ethyl)-1H-pyrazolo[4,3-c]pyridin-6-yl]-methanone], the IC50 on human A2B receptors (read-out: A2B (Category)) and on human A2A receptors (read-out: A2A (Category)) was less than 100 nM each time.

As to `O=C(c1cc2c(cn1)c(-c1cnn3ccccc13)nn2CC(F)(F)F)N1CC2CCC(C1)O2` [Compound 99, (8-Oxa-3-aza-bicyclo[3.2.1]oct-3-yl)-[3-pyrazolo[1,5-a]pyridin-3-yl-1-(2,2,2-trifluoro-ethyl)-1H-pyrazolo[4,3-c]pyridin-6-yl]-methanone], the IC50 at human A2B receptors (read-out: A2B (Category)) was less than 1000 nM; on human A2A receptors (read-out: A2A (Category)), less than 100 nM.
